Assay results published in patent US20050009924A1 (priority 2003, published 2005).

What was measured:
[1] = tested on: transcriptional activity of hTERT; assay: SEAP reporter assay of hTERT expression, PhTERT-SEAP (H1299); format: cell-based, human; conditions: PhTERT-SEAP(hTERT-H1299)
Method in brief: (§1)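 SEAP activity, read as rate of 405 nm absorbance rise with 12 mM p-nitrophenyl phosphate in diethanolamine/MgCl2/homoarginine buffer after 65 °C, 10 min heat inactivation, reports hTERT or CMV promoter activity. G418-selected stable H1299 or hTERT-BJ1 reporter lines were exposed to drug for 24 h.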

[2] = tested on: rat glioma C6 cells; assay: Cytotoxicity assay (XTT colorimetric), C6 cells; format: cell-based; conditions: 48 h of drug exposure
[3] = tested on: non-small-cell lung cancer cells H1299; assay: MTT relative viability, PhTERT-SEAP (H1299) cells; conditions: PhTERT-SEAP(hTERT-H1299)
[4] = tested on: hTERT-BJ1 cells; assay: MTT relative viability, PhTERT-SEAP (hTERT-BJ1) cells; conditions: PhTERT-SEAP (hTERT-BJ1)
[5] = tested on: transcriptional activity of hTERT; assay: SEAP reporter assay of hTERT expression, PhTERT-SEAP (hTERT-BJ1); format: cell-based, human; conditions: PhTERT-SEAP (hTERT-BJ1)
Method in brief: as §1

[6] = tested on: hepatitis B virus transfected hepatoma cell lines, HepG 2.2.15 cells; assay: Cytotoxicity assay, 2.2.15 cells; format: cell-based, human; conditions: 48 h of drug exposure
[7] = tested on: human hepatoma G2 cells; assay: Cytotoxicity assay (XTT colorimetric), Hep G2; format: cell-based; conditions: 48 h of drug exposure

O=C(Nc1ccc(NC(=O)c2cccc(F)c2)c2c1C(=O)c1ccccc1C2=O)c1cccc(F)c1 [VI12, 1,4-Bis(3-fluorobenzoylamido)-9,10-anthracenedione]
Relative SEAP activity (%) ([1]; 2.0 μM): 102 ± 2.9% | SEAP/vibility ([1]; 2.0 μM): 0.98 | Relative SEAP activity (%) ([1]; 20 μM): 110 ± 6.5% | SEAP/vibility ([1]; 20 μM): 1.14 | Relative SEAP activity (%) ([1]; 207 μM): 106 ± 9.4% | SEAP/vibility ([1]; 207 μM): 1.59 | IC50 [2]: > 20 µM | Relative MTT viability (%) ([3]; 2.0 μM): 105 ± 6.8% | Relative MTT viability (%) ([3]; 20 μM): 96 ± 7.4% | Relative MTT viability (%) ([3]; 207 μM): 66 ± 5.5% | Relative MTT viability (%) ([4]; 2.0 μM): 102 ± 1.5% | Relative MTT viability (%) ([4]; 20 μM): 97 ± 2.9% | Relative MTT viability (%) ([4]; 207 μM): 85 ± 2.6% | Relative SEAP activity (%) ([5]; 2.0 μM): 107 ± 11.9% | SEAP/vibility ([5]; 2.0 μM): 1.05 | Relative SEAP activity (%) ([5]; 20 μM): 108 ± 15.5% | SEAP/vibility ([5]; 20 μM): 1.11 | Relative SEAP activity (%) ([5]; 207 μM): 95 ± 13.9% | SEAP/vibility ([5]; 207 μM): 1.12 | IC50 [6]: > 20 µM | IC50 [7]: > 20 µM

O=C(Nc1ccc(NC(=O)c2c(Cl)cc(Cl)cc2Cl)c2c1C(=O)c1ccccc1C2=O)c1c(Cl)cc(Cl)cc1Cl [VI13, 1,4-Bis(2,4,6-trichlorobenzoylamido)-9,10-anthracenedione]
Relative SEAP activity (%) ([1]; 1.5 μM): 98 ± 4.5% | SEAP/vibility ([1]; 1.5 μM): 0.87 | Relative SEAP activity (%) ([1]; 15 μM): 66 ± 2.4% | SEAP/vibility ([1]; 15 μM): 0.61 | Relative SEAP activity (%) ([1]; 153 μM): 41 ± 3.9% | SEAP/vibility ([1]; 153 μM): 0.03 | IC50 [2]: > 20 µM | Relative MTT viability (%) ([3]; 1.5 μM): 113 ± 4.8% | Relative MTT viability (%) ([3]; 15 μM): 107 ± 5.4% | Relative MTT viability (%) ([3]; 153 μM): 20 ± 3.3% | Relative MTT viability (%) ([4]; 1.5 μM): 98 ± 8.5% | Relative MTT viability (%) ([4]; 15 μM): 63 ± 7.0% | Relative MTT viability (%) ([4]; 153 μM): 40 ± 22.2% | Relative SEAP activity (%) ([5]; 1.5 μM): 31 ± 23.0% | SEAP/vibility ([5]; 1.5 μM): 0.32 | Relative SEAP activity (%) ([5]; 15 μM): 12 ± 12.5% | SEAP/vibility ([5]; 15 μM): 0.19 | Relative SEAP activity (%) ([5]; 153 μM): 4 ± 15% | SEAP/vibility ([5]; 153 μM): 0.09 | IC50 [6]: 3.63 µM | IC50 [7]: 2.77 µM

O=C(Nc1ccc(NC(=O)c2c(F)ccc(F)c2F)c2c1C(=O)c1ccccc1C2=O)c1c(F)ccc(F)c1F [VI14, 1,4-Bis(2,3,6-trifluorobenzoylamido)-9,10-anthracenedione]
Relative SEAP activity (%) ([1]; 1.8 μM): 91 ± 5.2% | SEAP/vibility ([1]; 1.8 μM): 0.82 | Relative SEAP activity (%) ([1]; 18 μM): 97 ± 4.1% | SEAP/vibility ([1]; 18 μM): 1.09 | Relative SEAP activity (%) ([1]; 180 μM): 91 ± 3.3% | SEAP/vibility ([1]; 180 μM): 1.64 | IC50 [2]: > 20 µM | Relative MTT viability (%) ([3]; 1.8 μM): 111 ± 2.9% | Relative MTT viability (%) ([3]; 18 μM): 89 ± 3.7% | Relative MTT viability (%) ([3]; 180 μM): 55 ± 3.3% | Relative MTT viability (%) ([4]; 1.8 μM): 102 ± 3.3% | Relative MTT viability (%) ([4]; 18 μM): 90 ± 6.0% | Relative MTT viability (%) ([4]; 180 μM): 70 ± 6.8% | Relative SEAP activity (%) ([5]; 1.8 μM): 35 ± 14.1% | SEAP/vibility ([5]; 1.8 μM): 0.35 | Relative SEAP activity (%) ([5]; 18 μM): 22 ± 24.4% | SEAP/vibility ([5]; 18 μM): 0.25 | Relative SEAP activity (%) ([5]; 180 μM): 31 ± 7.9% | SEAP/vibility ([5]; 180 μM): 0.44 | IC50 [6]: > 20 µM | IC50 [7]: > 20 µM

O=C(Nc1ccc(NC(=O)c2cc(F)c(F)cc2F)c2c1C(=O)c1ccccc1C2=O)c1cc(F)c(F)cc1F [VI15, 1,4-Bis(2,4,5-trifluorobenzoylamido)-9,10-anthracenedione]
Relative SEAP activity (%) ([1]; 1.6 μM): 109 ± 10.8% | SEAP/vibility ([1]; 1.6 μM): 1.20 | Relative SEAP activity (%) ([1]; 16 μM): 118 ± 10.3% | SEAP/vibility ([1]; 16 μM): 1.45 | Relative SEAP activity (%) ([1]; 161 μM): 104 ± 8.2% | SEAP/vibility ([1]; 161 μM): 1.73 | IC50 [2]: > 20 µM | Relative MTT viability (%) ([3]; 1.6 μM): 90 ± 6.6% | Relative MTT viability (%) ([3]; 16 μM): 81 ± 1.9% | Relative MTT viability (%) ([3]; 161 μM): 60 ± 5.0% | Relative MTT viability (%) ([4]; 1.6 μM): 104 ± 4.5% | Relative MTT viability (%) ([4]; 16 μM): 89 ± 5.0% | Relative MTT viability (%) ([4]; 161 μM): 80 ± 3.8% | Relative SEAP activity (%) ([5]; 1.6 μM): 117 ± 14.2% | SEAP/vibility ([5]; 1.6 μM): 1.12 | Relative SEAP activity (%) ([5]; 16 μM): 114 ± 20.4% | SEAP/vibility ([5]; 16 μM): 1.29 | Relative SEAP activity (%) ([5]; 161 μM): 115 ± 30.8% | SEAP/vibility ([5]; 161 μM): 1.44 | IC50 [6]: 3.35 µM | IC50 [7]: > 20 µM

O=C(Nc1ccc(NC(=O)c2ccc(Cl)cc2)c2c1C(=O)c1ccccc1C2=O)c1ccc(Cl)cc1 [VI16, 1,4-Bis(4-chlorobenzoylamido)-9,10-anthracenedione]
Relative SEAP activity (%) ([1]; 1.9 μM): 109 ± 6.8% | SEAP/vibility ([1]; 1.9 μM): 1.23 | Relative SEAP activity (%) ([1]; 19 μM): 118 ± 5.6% | SEAP/vibility ([1]; 19 μM): 1.33 | Relative SEAP activity (%) ([1]; 194 μM): 116 ± 12.3% | SEAP/vibility ([1]; 194 μM): 1.46 | IC50 [2]: > 20 µM | Relative MTT viability (%) ([3]; 1.9 μM): 89 ± 5.5% | Relative MTT viability (%) ([3]; 19 μM): 89 ± 9.5% | Relative MTT viability (%) ([3]; 194 μM): 79 ± 5.6% | Relative MTT viability (%) ([4]; 1.9 μM): 111 ± 0.8% | Relative MTT viability (%) ([4]; 19 μM): 103 ± 5.9% | Relative MTT viability (%) ([4]; 194 μM): 99 ± 5.2% | Relative SEAP activity (%) ([5]; 1.9 μM): 116 ± 28.6% | SEAP/vibility ([5]; 1.9 μM): 1.05 | Relative SEAP activity (%) ([5]; 19 μM): 112 ± 21.9% | SEAP/vibility ([5]; 19 μM): 1.09 | Relative SEAP activity (%) ([5]; 194 μM): 152 ± 39.7% | SEAP/vibility ([5]; 194 μM): 1.54 | IC50 [6]: > 20 µM | IC50 [7]: > 20 µM

O=C(Nc1ccc(NC(=O)c2ccc(F)cc2F)c2c1C(=O)c1ccccc1C2=O)c1ccc(F)cc1F [VI18, 1,4-Bis(2,4-difluorobenzoylamido)-9,10-anthracenedione]
Relative SEAP activity (%) ([1]; 1.9 μM): 93 ± 5.6% | SEAP/vibility ([1]; 1.9 μM): 1.06 | Relative SEAP activity (%) ([1]; 19 μM): 99 ± 5.4% | SEAP/vibility ([1]; 19 μM): 1.17 | Relative SEAP activity (%) ([1]; 192 μM): 99 ± 1.8% | SEAP/vibility ([1]; 192 μM): 1.44 | IC50 [2]: > 20 µM | Relative MTT viability (%) ([3]; 1.9 μM): 87 ± 3.7% | Relative MTT viability (%) ([3]; 19 μM): 85 ± 7.1% | Relative MTT viability (%) ([3]; 192 μM): 69 ± 8.4% | Relative MTT viability (%) ([4]; 1.9 μM): 104 ± 5.6% | Relative MTT viability (%) ([4]; 19 μM): 101 ± 4.4% | Relative MTT viability (%) ([4]; 192 μM): 103 ± 6.1% | Relative SEAP activity (%) ([5]; 1.9 μM): 48 ± 21.7% | SEAP/vibility ([5]; 1.9 μM): 0.46 | Relative SEAP activity (%) ([5]; 19 μM): 51 ± 18.5% | SEAP/vibility ([5]; 19 μM): 0.50 | Relative SEAP activity (%) ([5]; 192 μM): 48 ± 23.1% | SEAP/vibility ([5]; 192 μM): 0.46 | IC50 [6]: > 20 µM | IC50 [7]: > 20 µM
